{"source": "patent US10435396B2", "about": "“2-substituted indazoles, methods for producing same, pharmaceutical preparations that contain same, and use of same to produce drugs” (Bayer Pharma Aktiengesellschaft, priority 2016, dated 2019)", "key": {"[1]": {"target": "human IRAK4 (Homo sapiens (Human), UniProt Q9NWZ3)", "sequence (Q9NWZ3 whole entry, the tested form may be a part)": "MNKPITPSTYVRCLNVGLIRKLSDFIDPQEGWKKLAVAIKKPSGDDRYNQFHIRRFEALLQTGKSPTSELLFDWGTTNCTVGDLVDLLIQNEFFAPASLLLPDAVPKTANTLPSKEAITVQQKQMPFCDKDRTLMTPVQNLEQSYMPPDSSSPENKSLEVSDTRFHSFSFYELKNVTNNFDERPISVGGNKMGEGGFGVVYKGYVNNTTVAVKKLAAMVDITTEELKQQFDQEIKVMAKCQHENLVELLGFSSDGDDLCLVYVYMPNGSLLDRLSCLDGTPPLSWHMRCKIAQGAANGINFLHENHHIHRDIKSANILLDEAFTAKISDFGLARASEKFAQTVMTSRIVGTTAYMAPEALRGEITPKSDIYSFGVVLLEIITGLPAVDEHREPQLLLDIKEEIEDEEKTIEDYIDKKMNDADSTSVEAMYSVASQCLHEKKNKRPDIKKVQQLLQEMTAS", "assay": "IRAK4 kinase assay (IRAK4 TR-FRET assay)", "type": "biochemical", "settings": "1 mM ATP", "procedure": "The IRAK4-inhibitory activity of the substances according to the invention was measured in the IRAK4 TR-FRET assay (TR-FRET=Time Resolved Fluorescence Resonance Energy Transfer) described hereinafter.\nRecombinant fusion protein from N-terminal GST (glutathione S-transferase) and human IRAK4, expressed in baculovirus-infected insect cells (Hi5, BTI-TN-5B1-4, cell line purchased from Invitrogen, catalogue No. B855-02) and purified via affinity chromatography, was used as enzyme. The substrate used for the kinase reaction was the biotinylated peptide biotin-Ahx-[…] (C-terminus in amide form) which can be purchased, for example, from Biosyntan GmbH (Berlin-Buch).\nFor the assay, 11 different concentrations in the range from 20 μM to 0.073 nM were prepared from a 2 mM solution of the test substance in DMSO. 50 nl of the respective solution were pipetted into a black low-volume 384-well microtitre plate (Greiner Bio-One, Frickenhausen, Germany), 2 μl of a solution of IRAK4 in assay buffer [50 mM HEPES pH 7.5, 5 mM MgCl2, 1.0 mM dithiothreitol, 30 μM activated sodium orthovanadate, 0.1% (w/v) of bovine gamma-globulin (BGG) 0.04% (v/v) nonidet-P40 (Sigma)] were added and the mixture was incubated for 15 min to allow prebinding of the substances to the enzyme prior to the kinase reaction. The kinase reaction was then started by addition of 3 μl of a solution of adenosine triphosphate (ATP, 1.67 mM=final concentration in 5 μl of assay volume: 1 mM) and peptide substrate (0.83 μM=final concentration in 5 μl assay volume: 0.5 μM) in assay buffer, and the resulting mixture was incubated at 22° C. for the reaction time of 45 min. The concentration of the IRAK4 was adjusted to the respective activity of the enzyme and set such that the assay was carried out in the linear range. Typical concentrations were in the order of about 0.2 nM. The reaction was stopped by addition of 5 μl of a solution of TR-FRET detection reagents [0.1 μM streptavidin-XL665 (Cisbio Bioassays; France, catalogue No. 610SAXLG)] and 1.5 nM anti-phosphoserine antibody [Merck Millipore, “STK Antibody”, catalogue No. 35-002] and 0.6 nM LANCE EU-W1024-labelled anti-mouse-IgG antibody (Perkin-Elmer, product No. AD0077; alternatively, it is possible to use a terbium cryptate-labelled anti-mouse-IgG antibody from Cisbio Bioassays) in aqueous EDTA solution (100 mM EDTA, 0.4% [w/v] bovine serum albumin [BSA] in 25 mM HEPES pH 7.5).\nThe resulting mixture was incubated at 22° C. for 1 h to allow formation of a complex of the biotinylated phosphorylated substrate and the detection reagents. The amount of the phosphorylated substrate was then evaluated by measuring the resonance energy transfer from europium chelate-labelled anti-mouse-IgG antibody to streptavidin-XL665. To this end, the fluorescence emissions at 620 nm and 665 nm were measured after excitation at 350 nm in a TR-FRET measuring instrument, for example a Rubystar (BMG Labtechnologies, Offenburg, Germany) or a Viewlux (Perkin-Elmer). The ratio of the emissions at 665 nm and 622 nm was taken as a measure of the amount of phosphorylated substrate. The data were normalized (enzyme reaction without test substance=0% inhibition; all other assay components but no enzyme=100% inhibition). Typically, the test substances were tested on the same microtitre plates at 11 different concentrations in the range from 20 μM to 0.073 nM (20 μM, 5.7 μM, 1.6 μM, 0.47 μM, 0.13 μM, 38 nM, 11 nM, 3.1 nM, 0.89 nM, 0.25 nM and 0.073 nM). The dilution series were prepared prior to the assay (2 mM to 7.3 nM in 100% DMSO) by serial dilutions. The IC50 values were calculated using a 4-parameter fit."}, "[2]": {"test_system": "human PBMCs", "assay": "In vitro LPS-induced cytokine production in human PBMCs", "type": "cell-based", "settings": "0.1 μg/ml LPS, 24 hours", "procedure": "In Vitro LPS (Lipopolysaccharide)-Induced Cytokine Production in Human PBMCs (Peripheral Blood Mononuclear Cells)\nThe effect of the inventive compounds of the general formula (I) on induced cytokine production in human PBMCs was examined. Cytokine production was induced here by LPS, a TLR4 ligand, which leads to activation of the IRAK4-mediated signal path.\nThe human PBMCs were obtained from anti-coagulated human whole blood. To this end, 15 ml of Ficoll-Paque (Biochrom, Cat. No. L6115) were initially charged in Leucosep tubes and 20 ml of human blood were added. After centrifugation of the blood at 800 g for 15 min at room temperature, the plasma including the platelets was removed and discarded. The PBMCs were transferred into centrifugation tubes and made up with PBS (phosphate-buffered saline) (Gibco, Cat. No. 14190). The cell suspension was centrifuged at room temperature at 250 g for 10 min and the supernatant was discarded. The PBMCs were resuspended in complete medium (RPMI 1640, without L-glutamine (PAA, Cat. No. E15-039), 10% FCS; 50 U/ml penicillin, 50 μg/ml streptomycin (PAA, Cat. No. P11-010) and 1% L-glutamine (Sigma, Cat. No. G7513)).\nThe assay was also carried out in complete medium. The PBMCs were sown in 96-well plates at a cell density of 2.5×10^5 cells/well. The compounds according to the invention were subjected to serial dilution in a constant volume of 100% DMSO and used in the assay at 8 different concentrations in the range from 10 μM to 3 nM such that the final DMSO concentration was 0.4% DMSO. Prior to the actual stimulation, the cells were then pre-incubated therewith for 30 min. […] Cell viability was determined using the CellTiter-Glo luminescent assay (Promega, Cat. No. G7571 (G755/G756A)) in accordance with the manufacturer's instructions. The amount of secreted TNF-α in the cell culture supernatant was determined using the Human ProInflammatory 9-Plex Tissue Culture Kit (MSD, Cat. No. K15007B) in accordance with the instructions of the manufacturer. […]"}}, "note": "pIC50: −log10 of the molar value.", "data": [{"compound": "COc1cc2nn(C3CCN(CCC(C)(C)O)CC3)cc2cc1NC(=O)c1cccc(C(F)(F)F)n1", "note": "[Example 52, N-{2-[1-(3-Hydroxy-3-methylbutyl)piperidin-4-yl]-6-methoxy-2H-indazol-5-yl}-6-(trifluoromethyl)pyridine-2-carboxamide]", "values": [{"measurement": "pIC50", "setting": "[1]", "result": 9.00}, {"measurement": "activity (secreted TNF-α, LPS-induced cytokine production in human PBMCs)", "setting": "[2]", "result": "≤ 1", "unit": "µM"}]}]}
